For 26 compounds, IC50 results are on record in patent US20240425479A1, “HALO-SUBSTITUTED AMINO AZA-HETEROARYL COMPOUNDS AS INHIBITORS OF THE HAEMATOPOIETIC PROGENITOR KINASE 1 (HPK1)” (priority 2021, published 2024).

The target of the assay is T1, Recombinant (1-346) HPK1 (h) (Homo sapiens, UniProt Q92918).
T1 construct: Recombinant (1-346) HPK1 (h) is incubated with 8 mM MOPS pH 7.0
T1 sequence (Q92918 1-346): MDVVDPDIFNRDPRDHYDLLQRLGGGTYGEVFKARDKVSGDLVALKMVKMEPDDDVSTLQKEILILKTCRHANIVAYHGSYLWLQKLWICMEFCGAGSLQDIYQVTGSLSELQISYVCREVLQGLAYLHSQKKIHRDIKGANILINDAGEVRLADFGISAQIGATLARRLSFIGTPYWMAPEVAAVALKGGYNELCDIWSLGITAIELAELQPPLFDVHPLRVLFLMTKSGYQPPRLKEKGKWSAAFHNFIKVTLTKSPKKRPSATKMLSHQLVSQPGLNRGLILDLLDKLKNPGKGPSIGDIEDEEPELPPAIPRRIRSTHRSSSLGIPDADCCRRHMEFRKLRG
Kind of assay: HPK1 human STE kinase enzymatic radiometric assay. The following applies: read-out: HPK1 IC50 nM Range. It counts as biochemical. The method in brief: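 Recombinant HPK1 (1-346) incubated 40 min at RT with 0.33 mg/mL myelin basic protein and [gamma-33P]-ATP in 8 mM MOPS pH 7.0, 0.2 mM EDTA, 10 mM Mg acetate; reaction started with Mg/ATP. Stopped with 0.5% phosphoric acid, spotted on P30 filtermat, washed, scintillation counted. Compounds tested as 9-point 3-fold dilutions.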

As usually defined, the IC50 is the concentration that gives 50% inhibition. Turning to `Cc1c[nH]c(=O)c2cc(F)c(-c3nc(-c4ccc(C5CCOCC5)c(CN(C)C)c4)c(F)nc3N)cc12` [Example I-235, 6-(3-amino-6-(3-((dimethylamino)methyl)-4-(tetrahydro-2H-pyran-4-yl)phenyl)-5-fluoropyrazin-2-yl)-7-fluoro-4-methylisoquinolin-1(2H)-one], the IC50 lay in the range of 0.1 to 10 nM.

In the case of `Cc1cc(-c2nc(-c3ccc4c(=O)[nH]cc(C)c4c3)c(N)nc2F)cc2c1CCN(C)C2` [Example I-295, 6-(3-amino-6-(2,5-dimethyl-1,2,3,4-tetrahydroisoquinolin-7-yl)-5-fluoropyrazin-2-yl)-4-methylisoquinolin-1(2H)-one], the IC50 fell in the range of 11 to 100 nM.

With `Cc1nc2cc(-c3nc(-c4ccc(N5C[C@@H](C)N(C)[C@@H](C)C5)cc4)c(F)nc3N)ccc2c(=O)[nH]1` [Example I-95, 7-(3-amino-5-fluoro-6-(4-((3R,5S)-3,4,5-trimethylpiperazin-1-yl)phenyl)pyrazin-2-yl)-2-methylquinazolin-4(3H)-one], the IC50 was 11 to 100 nM.

Regarding `C[C@H]1CCCN1Cc1cc(-c2nc(-c3ccc4c(=O)[nH]cc(F)c4c3)c(N)nc2F)ccc1C1CCOCC1` [Example I-228, (S)-6-(3-amino-5-fluoro-6-(3-((2-methylpyrrolidin-1-yl)methyl)-4-(tetrahydro-2H-pyran-4-yl)phenyl)pyrazin-2-yl)-4-fluoroisoquinolin-1(2H)-one], the IC50 was 0.1 to 10 nM.

For `C[C@H]1CN(c2ccc(-c3nc(-c4cc(F)c5c(c4)CCNC5=O)c(N)nc3F)cc2CN2CCC2)CCO1` [Example I-216, (S)-6-(3-amino-6-(3-(azetidin-1-ylmethyl)-4-(2-methylmorpholino)phenyl)-5-fluoropyrazin-2-yl)-8-fluoro-3,4-dihydroisoquinolin-1(2H)-one], the IC50 lay within 11 to 100 nM.

As to `CC(C)N1CCN(c2ccc(-c3nc(-c4cc5c(F)c[nH]c(=O)c5cc4F)c(N)nc3F)cc2)CC1` [Example I-140, 6-(3-amino-5-fluoro-6-(4-(4-isopropylpiperazin-1-yl)phenyl)pyrazin-2-yl)-4,7-difluoroisoquinolin-1(2H)-one], the IC50 lay in the range of 0.1 to 10 nM.

On to `Cc1c[nH]c(=O)c2ccc(-c3nc(-c4ccc(N5CCOCC5)c(CN5CCCC5)c4)c(F)nc3N)cc12` [Example I-203, 6-(3-amino-5-fluoro-6-(4-morpholino-3-(pyrrolidin-1-ylmethyl)phenyl)pyrazin-2-yl)-4-methylisoquinolin-1(2H)-one], for which the IC50 was 0.1 to 10 nM.

Turning to `Cc1[nH]c(=O)c2ccc(-c3nc(-c4ccc(N5CCOCC5)c(CN(C)C)c4)c(F)nc3N)cc2c1F` [Example I-101, 6-(3-amino-6-(3-((dimethylamino)methyl)-4-morpholinophenyl)-5-fluoropyrazin-2-yl)-4-fluoro-3-methylisoquinolin-1(2H)-one], the IC50 fell in the range of 0.1 to 10 nM.

As to `C[C@@H]1CN(c2ccc(-c3nc(-c4cc5c(cc4F)C(=O)NCC5)c(N)nc3F)cc2)C[C@H](C)N1C` [Example I-58, 6-(3-amino-5-fluoro-6-(4-((3R,5S)-3,4,5-trimethylpiperazin-1-yl)phenyl)pyrazin-2-yl)-7-fluoro-3,4-dihydroisoquinolin-1(2H)-one], the IC50 lay within 0.1 to 10 nM.

With `COCCN(C)Cc1cc(-c2nc(-c3cc4c(cc3F)C(=O)NCC4)c(N)nc2F)ccc1N1CCOCC1` [Example I-161, 6-(3-amino-5-fluoro-6-(3-(((2-methoxyethyl)(methyl)amino)methyl)-4-morpholinophenyl)pyrazin-2-yl)-7-fluoro-3,4-dihydroisoquinolin-1(2H)-one], the IC50 is 0.1 to 10 nM.

Take `C[C@@H]1CCCN1Cc1cc(-c2nc(-c3ccc4c(c3)C(F)(F)CNC4=O)c(N)nc2F)ccc1C1CCOCC1` [Example I-232, (R)-6-(3-amino-5-fluoro-6-(3-((2-methylpyrrolidin-1-yl)methyl)-4-(tetrahydro-2H-pyran-4-yl)phenyl)pyrazin-2-yl)-4,4-difluoro-3,4-dihydroisoquinolin-1(2H)-one]: the IC50 lay within 0.1 to 10 nM.

As to `CCN(C)Cc1c(N2CCOCC2)ccc(-c2nc(-c3cc4c(cc3F)C(=O)NCC4)c(N)nc2F)c1F` [Example I-246, 6-(3-amino-6-(3-((ethyl(methyl)amino)methyl)-2-fluoro-4-morpholinophenyl)-5-fluoropyrazin-2-yl)-7-fluoro-3,4-dihydroisoquinolin-1(2H)-one], the IC50 fell in the range of 11 to 100 nM.

Take `C[C@H]1CCCN1Cc1cc(-c2nc(-c3ccc4c(=O)[nH]cc(Cl)c4c3)c(N)nc2F)ccc1C1CCOCC1` [Example I-229, (S)-6-(3-amino-5-fluoro-6-(3-((2-methylpyrrolidin-1-yl)methyl)-4-(tetrahydro-2H-pyran-4-yl)phenyl)pyrazin-2-yl)-4-chloroisoquinolin-1(2H)-one]: the IC50 lay in the range of 11 to 100 nM.

As for `CC(C)N1CCN(c2ccc(-c3nc(-c4ccc5c(c4)CCNC5=O)c(N)nc3F)cc2)[C@H](C)C1` [Example I-50, (R)-6-(3-amino-5-fluoro-6-(4-(4-isopropyl-2-methylpiperazin-1-yl)phenyl)pyrazin-2-yl)-3,4-dihydroisoquinolin-1(2H)-one], the IC50 lay in the range of 0.1 to 10 nM.

Consider `CN(C)[C@@H]1COc2ccc(-c3nc(-c4cc(F)c5c(c4)CCNC5=O)c(N)nc3F)cc21` [Example I-254, (S)-6-(3-amino-6-(3-(dimethylamino)-2,3-dihydrobenzofuran-5-yl)-5-fluoropyrazin-2-yl)-8-fluoro-3,4-dihydroisoquinolin-1(2H)-one], for which the IC50 lay in the range of 11 to 100 nM.

Regarding `CN(C)Cc1cc(-c2nc(-c3ccc4c(c3)CCNC4=O)c(N)nc2F)c(F)c(F)c1N1CCOCC1` [Example I-262, 6-(3-amino-6-(5-((dimethylamino)methyl)-2,3-difluoro-4-morpholinophenyl)-5-fluoropyrazin-2-yl)-3,4-dihydroisoquinolin-1(2H)-one], the IC50 lay within 101 to 1000 nM.

As to `Cc1cc(-c2nc(-c3cc(F)c4c(c3)CCNC4=O)c(N)nc2F)ccc1C1CCOCC1` [Example I-221, 6-(3-amino-5-fluoro-6-(3-methyl-4-(tetrahydro-2H-pyran-4-yl)phenyl)pyrazin-2-yl)-8-fluoro-3,4-dihydroisoquinolin-1(2H)-one], the concentration for half-maximal inhibition (IC50) was 0.1 to 10 nM.

With `Cc1c[nH]c(=O)c2ccc(-c3nc(-c4ccc(N5CCN(C6CCC6)CC5)cc4)c(F)nc3N)cc12` [Example I-139, 6-(3-amino-6-(4-(4-cyclobutylpiperazin-1-yl)phenyl)-5-fluoropyrazin-2-yl)-4-methylisoquinolin-1(2H)-one], the IC50 lay in the range of 0.1 to 10 nM.

For `COc1ccc(-c2nc(-c3ccc4c(=O)[nH]cc(F)c4c3)c(N)nc2F)cc1C(C)N(C)C` (centres unmarked) [Example I-291, 6-(3-amino-6-(3-(1-(dimethylamino)ethyl)-4-methoxyphenyl)-5-fluoropyrazin-2-yl)-4-fluoroisoquinolin-1(2H)-one], the IC50 lay in the range of 0.1 to 10 nM.

With `CN(C)[C@@H]1CCOc2ccc(-c3nc(-c4ccc5c(=O)[nH]ccc5c4)c(N)nc3F)cc21` [Example I-286, (R)-6-(3-amino-6-(4-(dimethylamino)chroman-6-yl)-5-fluoropyrazin-2-yl)isoquinolin-1(2H)-one], the IC50 lay in the range of 11 to 100 nM.

As to `C[C@@H]1CN(c2ccc(-c3nc(-c4ccc5c(=O)[nH]cc(Cl)c5c4)c(N)nc3F)cc2CN(C)C)C[C@H](C)O1` [Example I-231, 6-(3-amino-6-(3-((dimethylamino)methyl)-4-((2R,6S)-2,6-dimethylmorpholino)phenyl)-5-fluoropyrazin-2-yl)-4-chloroisoquinolin-1(2H)-one], the IC50 lay in the range of 0.1 to 10 nM.

Consider `CCN1CCN(c2ccc(-c3nc(-c4ccc5c(c4)CCNC5=O)c(N)nc3F)cc2)CC1` [Example I-55, 6-(3-amino-6-(4-(4-ethylpiperazin-1-yl)phenyl)-5-fluoropyrazin-2-yl)-3,4-dihydroisoquinolin-1(2H)-one], for which the IC50 was in the range of 0.1 to 10 nM.

For `CCN(C)Cc1cc(-c2nc(-c3ccc4c(c3)C(F)(F)CNC4=O)c(N)nc2F)ccc1C1CCOCC1` [Example I-224, 6-(3-amino-6-(3-((ethyl(methyl)amino)methyl)-4-(tetrahydro-2H-pyran-4-yl)phenyl)-5-fluoropyrazin-2-yl)-4,4-difluoro-3,4-dihydroisoquinolin-1(2H)-one], the IC50 was in the range of 0.1 to 10 nM.

In the case of `Cc1c[nH]c(=O)c2ccc(-c3nc(-c4ccc([C@]56C[C@H]5CN(C)C6)cc4)c(F)nc3N)cc12` [Example I-75, 6-(3-amino-5-fluoro-6-(4-((1S,5R)-3-methyl-3-azabicyclo[3.1.0]hexan-1-yl)phenyl)pyrazin-2-yl)-4-methylisoquinolin-1(2H)-one], the IC50 was 11 to 100 nM.

With `Nc1nc(F)c(-c2ccc([C@]34C[C@H]3CN(C3CCC3)C4)cc2)nc1-c1ccc2c(=O)[nH]cc(F)c2c1` [Example I-99, 6-(3-amino-6-(4-((1S,5R)-3-cyclobutyl-3-azabicyclo[3.1.0]hexan-1-yl)phenyl)-5-fluoropyrazin-2-yl)-4-fluoroisoquinolin-1(2H)-one], the IC50 fell in the range of 0.1 to 10 nM.

On to `Cc1nc2cc(-c3nc(-c4ccc(N5C[C@@H](C)O[C@@H](C)C5)c(CN(C)C)c4)c(F)nc3N)ccc2c(=O)[nH]1` [Example I-194, 7-(3-amino-6-(3-((dimethylamino)methyl)-4-((2R,6S)-2,6-dimethylmorpholino)phenyl)-5-fluoropyrazin-2-yl)-2-methylquinazolin-4(3H)-one], for which the IC50 was in the range of 11 to 100 nM.
